Data published in EP4763841A1, “PYRIDAZINONE COMPOUND AND USE THEREOF” (Xi'an Xintong Pharmaceutical Research Co., Ltd., priority 2023, dated 2025).
Where two headings read alike, the source gives them in different places.

Assays:
[1] = biological target: T1, THRβ (Homo sapiens, UniProt P10828); test: HTRF test of agonist-induced SRC3-2 coactivator peptide recruitment to THRβ-LBD; type: biochemical; details: for agonistic activity on THRβ compared with Resmetirom / selectivity of agonistic effect for THRβ over THRα: result in words
T1 sequence (P10828 217-461 limits assumed): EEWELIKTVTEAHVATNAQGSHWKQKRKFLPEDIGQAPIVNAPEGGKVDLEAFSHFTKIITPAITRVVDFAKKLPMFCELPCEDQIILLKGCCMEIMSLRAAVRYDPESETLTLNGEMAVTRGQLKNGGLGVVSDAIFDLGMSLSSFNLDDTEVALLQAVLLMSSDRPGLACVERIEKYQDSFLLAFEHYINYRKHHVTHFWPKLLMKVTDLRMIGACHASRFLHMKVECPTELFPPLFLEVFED
Procedure: (§1) 1. Experiment of binding of compounds to THRβ and THRα
(§2) Test principle: The effect of test compounds on THRβ and THRα was tested by using a method of HTRF. An MAb Anti GST-Eu cryptate antibody binds to GST-tagged THRα-LBD (or THRβ-LBD), while Streptavidin-XL665 binds to a biotin-labeled SRC3-2 coactivator peptide. […] At the same time, the resulting decrease in the distance between XL665-labeled SRC3-2 and an Eu-anti-GST antibody increases a THRFRET signal. The agonistic capacity at this target was assessed by the effect of compounds on the activity of THRα-LBD (THRβ-LBD) at different concentrations.
Test method: THRβ test procedures:
(§3) • (1) a 1×reaction solution was prepared. • (2) Preparation of compounds: the compound test starting concentration was 20 µM, 3-fold dilution was performed, 10 concentrations were set, and duplicate testing was set for each concentration. 100-fold dilution was performed in a 384-well Source plate to a corresponding solution with a final concentration, and then 200 nL of the solution was transferred to a 384-well reaction plate with Echo550 to be tested. 200 nL of 100% DMSO and a test article were respectively transferred to Min and Max wells. • (3) A 2×protein solution was prepared from the 1×reaction solution. • (4) A 4×SRC3-2 solution was prepared from the 1×reaction solution. • (5) A mixed solution of 4×GST-Eu cryptate and XL665 was prepared from the 1×reaction solution. • (6) 10 µl of the 2×protein solution was added to each well of the reaction plate, centrifugation was performed at 1000 rpm for 1 min, and incubation was performed at room temperature for 30 min. • (7) 5 µl of the 4×SRC3-2 solution was added to each well of the reaction plate, and centrifugation was performed at 1000 rpm for 1 min. • (8) 5 µL of the mixed solution of 4×GST-Eu cryptate and XL665 was added to each well of the reaction plate, centrifugation was performed at 1000 rpm for 1 min, and incubation was performed at 25°C. • (9) A fluorescence signal was read by using EnVision.

[2] = biological target: THRα (Homo sapiens, UniProt P10827); test: HTRF test of agonist-induced SRC3-2 coactivator peptide recruitment to THRα-LBD; type: biochemical; details: for EC50: HTRF, starting concentration 20 µM, 3-fold dilution, 10 concentrations, duplicate; for agonistic activity on THRα: result in words
THRα, sequence (P10827 148-410 isoform P10827-2 limits assumed, other chains not shown): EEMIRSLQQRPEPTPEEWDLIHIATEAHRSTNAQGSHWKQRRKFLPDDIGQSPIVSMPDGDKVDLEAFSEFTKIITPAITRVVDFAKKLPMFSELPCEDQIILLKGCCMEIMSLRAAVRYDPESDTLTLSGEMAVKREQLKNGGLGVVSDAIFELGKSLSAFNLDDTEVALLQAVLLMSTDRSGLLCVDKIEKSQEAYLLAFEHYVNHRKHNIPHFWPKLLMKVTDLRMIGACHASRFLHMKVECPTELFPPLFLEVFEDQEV
Procedure: as §1, §2, §3
THRα test procedures were the same as above.

[3] = Comparison of compound metabolites by human liver microsome incubation (LC-MS/MS); type: in vitro ADME; details: 10 µM compound, human liver microsome 1.0 mg/mL, β-NADPH 1.0 mM, 37°C, 60 min
Procedure: The purpose of this experiment was to evaluate the comparison of the content of major metabolites of human liver microsome incubated compounds.
Sample treatment: a sample was precipitated with acetonitrile (ACN) containing 0.1% formic acid in a ratio of 1:2, and further centrifuged. A supernatant was dried with a nitrogen flow. A residue was reconstituted in […] of 10% ACN and 90% H2O containing 0.1% formic acid. […] of the reconstituted material was injected into an LC-MS/MS system for analysis.

[4] = In vivo pharmacokinetic study of elimination phase half-life after single IV bolus; parameters: species or system Sprague Dawley rats; details: Sprague-Dawley, rat, whole blood, intravenous, I.V bolus, 5 mg/kg, rats, read-out: Elimination phase half-life (T1/2) (converted)
Procedure: Blood samples were collected from animals (IV group) before administration and at time points of 0.083 h, 0.25 h, 0.5 h, 1 h, 2 h, 4 h, 8 h, and 24 h after the end of administration. • Sample treatment: prior to blood collection, a centrifuge tube with 10 µl of EDTA-K2 and 1.2 mL of 50% acetonitrile-DMSO (a volume ratio of whole blood to 50% acetonitrile-DMSO is approximately 1:4) was placed in an ice box filled with crushed ice. The collected blood was added to the centrifuge tube, vortexed for at least 5 min, and then temporarily stored and transported in the ice box filled with crushed ice; and the blood was centrifuged at 12,000 g for 10 min at 4°C, wherein centrifugation was completed within 1 h after blood collection. A whole blood supernatant after centrifugation was transferred to a newly labeled tube, and transferred to -60°C or below for storage for analytical testing.

[5] = test system: NASH model of B-DIO mice; test: Efficacy test in NASH model of B-DIO mice (HFD + CCL4); type: in vivo
Excerpt: An objective of this experiment was to evaluate the pharmacodynamics of compounds of the present invention by using an NASH model of B-DIO mice.
Five C57BL/6 mice on normal diet were assigned to an experimental group G1, and 25 B-DIO mice were randomly assigned to five experimental groups according to the body weight, with 5 mice in each group.
The day of grouping was Day-1, intraperitoneal injection was started on Day 0 in the groups G2-G6 for CCL4 modeling, the concentration of a modeling agent is 0.2 µl/g, the modeling frequency was twice a week, and administration was started on Day 0.
The body weight was measured twice a week after grouping. At the end of the experiment (Day 26), the mice were fasted for 4 h, and non-anticoagulated blood of the mice in the groups G1-G6 was collected and centrifuged, and a serum was taken for blood biochemical testing. Livers in the groups G1-G6 were collected and weighed, 20 mg of the liver was weighed for determination of TC and TG, and the remaining liver was placed in formalin for fixation for pathological observation.

[6] = HTRF, starting concentration 20 µM, 3-fold dilution, 10 concentrations, duplicate, read-out: THRβ (EC50)
[7] = liver, Day 26, 3 mg/kg I.G. Q.D., HFD+CCL4, mean±standard error

SMILES: Cc1c(Oc2c(Cl)cc(-n3nc(CF)c(=O)[nH]c3=O)cc2Cl)n[nH]c(=O)c1C(C)C [Compound 16]
- EC50 [1, 6]: 11 nM
- agonistic activity on THRβ compared with Resmetirom [1]: significantly better than that of Resmetirom
- selectivity of agonistic effect for THRβ over THRα [1]: selective agonistic effects on THRβ
- EC50 [2]: > 5000 nM
- agonistic activity on THRα [2]: weak agonistic activity on THRα
- Monooxidized metabolite percent content (%) [3]: 9.7%
- Monooxidized metabolite percent content (%) ([3]; listed as compound 16): 9.7%

SMILES: [2H]C([2H])([2H])C(c1cc(Oc2c(Cl)cc(-n3nc(CF)c(=O)[nH]c3=O)cc2Cl)n[nH]c1=O)C([2H])([2H])[2H] [Compound 1]
- EC50 [1, 6]: 20 nM
- agonistic activity on THRβ compared with Resmetirom [1]: significantly better than that of Resmetirom
- EC50 [2]: 326 nM

SMILES: CC(C)c1cc(Oc2c(Cl)cc(-n3nc(C#N)c(=O)[nH]c3=O)cc2Cl)n[nH]c1=O [Resmetirom, reference compound]
- half-life [4]: 179 min
- area proportion of lipid droplets in the liver (oil red O) compared with the model group G2 ([5]; G3, 3 mg/kg, Day 26, result in words (FIG. 8)): decreased but no significant difference was seen
- liver fibrosis (Sirius red) compared with the model group G2 ([5]; G3, 3 mg/kg, Day 26, result in words (FIG. 9)): certain improvement effects on liver fibrosis
- TC [5, 7]: 56.44 ± 0.85 µmol/g
- TG [5, 7]: 74.26 ± 4.34 µmol/g
- TG ([5]; serum, Day 26, 3 mg/kg I.G. Q.D., HFD+CCL4, mean±standard error): 1.17 ± 0.06 mM

SMILES: Cc1c(C(C)C)c(Oc2c(Cl)cc(-n3nc(CF)c(=O)[nH]c3=O)cc2Cl)n[nH]c1=O [Compound 17]
- EC50 [1]: 46 nM
- agonistic activity on THRβ compared with Resmetirom [1]: significantly better than that of Resmetirom
- selectivity of agonistic effect for THRβ over THRα [1]: selective agonistic effects on THRβ
- EC50 [2]: > 5000 nM
- agonistic activity on THRα [2]: weak agonistic activity on THRα

SMILES: CC(C)c1cc(Oc2c(Cl)cc(-n3nc(CF)c(=O)[nH]c3=O)cc2Cl)n[nH]c1=O [Compound X1, reference compound]
- EC50 [1, 6]: 22 nM
- EC50 [2]: 95 nM
